Assay results published in US10034893B2, “5, 6-D2 uridine nucleoside/tide derivatives” (priority 2013, dated 2018).

Test system: HCV 1a genotype replicon (Huh-1a7 cell line, strain H77)
Assay: HCV Replicon Assay qRT-PCR, genotype 1a
Format: cell-based
Settings: Hepatitis C virus, read-out: 1a EC50
Text: HCV replicon cell lines (kindly provided by R. Bartenschlager) isolated from colonies as described by Lohman et al. (Lohman et al. (1999) Science 285: 110-113, expressly incorporated by reference in its entirety) and used for all experiments. One of the HCV replicon cell lines (strain Conl, genotype 1b) has the nucleic acid sequence set forth in EMBL Accession No.: AJ242651, the coding sequence of which is from nucleotides 1801 to 8406. Another replicon cell line (strain H77, genotype 1a) was constructed as described by Yi et. al. (Yi et. al. (2004) Journal of Virology 78(15):7904-15). […]
EC50 values of single agent compounds were determined by HCV RNA detection using quantitative RT-PCR, according to the manufacturer's instructions, with a TAQMAN® One-Step RT-PCR Master Mix Reagents Kit (Cat#AB 4309169, Applied Biosystems) on an ABI Model 7500 thermocycler. EC50 values of combinations are similarly determined by HCV RNA detection using quantitative RT-PCR. The TAQMAN primers to use for detecting and quantifying HCV RNA obtained from Integrated DNA Technologies. HCV RNA is normalized to GAPDH RNA levels in drug-treated cells, which is detected and quantified using the Human GAPDH Endogenous Control Mix (Applied Biosystems, AB 4310884E). […] Chemical agent cytotoxicity is evaluated using an MTS assay according to the manufacturer's directions (Promega). […]

Q: How did the EC50 turn out when [2H]c1cn([C@@H]2O[C@H](CO[P@@](=O)(N[C@@H](C)C(=O)OC(C)C)Oc3ccccc3)C(O)C2(C)F)c(=O)[nH]c1=O (stereo partly shown) [Example 1] was run?
A: 100 to 1000 nM
